Data on 21 molecules can be found in ChEMBL document CHEMBL5120854, “Discovery of Natural Ursane-type SENP1 Inhibitors and the Platinum Resistance Reversal Activity Against Human Ovarian Cancer Cells: A Structure-Activity Relationship Study” (J Nat Prod, 2022).

Structures are written as SMILES. Calls of active or inactive are those of the source. The calls are words filed in the database; no cut-off is given here.

Assay [1] addresses T1, Sentrin-specific protease 1 (Homo sapiens) (UniProt Q9P0U3).
T1 sequence (whole entry): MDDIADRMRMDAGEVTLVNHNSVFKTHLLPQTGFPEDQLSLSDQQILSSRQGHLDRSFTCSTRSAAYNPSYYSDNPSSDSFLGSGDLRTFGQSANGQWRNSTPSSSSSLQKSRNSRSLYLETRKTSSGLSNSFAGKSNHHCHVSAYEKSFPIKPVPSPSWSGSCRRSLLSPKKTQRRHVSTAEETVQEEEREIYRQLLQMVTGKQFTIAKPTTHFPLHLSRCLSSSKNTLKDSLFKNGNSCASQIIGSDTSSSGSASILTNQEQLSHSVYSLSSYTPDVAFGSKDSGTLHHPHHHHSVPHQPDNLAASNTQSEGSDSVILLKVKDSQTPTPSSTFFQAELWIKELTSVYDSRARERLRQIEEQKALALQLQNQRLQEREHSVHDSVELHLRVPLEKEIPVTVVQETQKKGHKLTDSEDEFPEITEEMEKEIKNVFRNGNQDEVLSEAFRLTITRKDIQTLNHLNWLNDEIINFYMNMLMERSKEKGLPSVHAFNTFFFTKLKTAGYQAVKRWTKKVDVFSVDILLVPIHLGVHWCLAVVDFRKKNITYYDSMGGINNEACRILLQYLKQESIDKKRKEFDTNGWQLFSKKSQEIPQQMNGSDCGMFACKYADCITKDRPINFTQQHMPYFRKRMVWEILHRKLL
Briefly: Inhibition of recombinant human SENP1 assessed as reduction in deSUMOylation of RanGAP1-SUMO1 at 5 uM using RanGAP1-SUMO1 as substrate preincubated for 10 mins followed by substrate addition and measured after 30 mins relative to control. The settings on record: time 40.0 min.

Assay [2] has as its target T1, Sentrin-specific protease 1 (Homo sapiens). Description: (§1) Inhibition of recombinant human SENP1 assessed as reduction in deSUMOylation using RanGAP1-SUMO1 as substrate preincubated for 10 mins followed by substrate addition and measured after 30 mins. The settings on record: time 40.0 min, DDE = dose-dependent effect.
Assay [3] concerns the target T2, Sentrin-specific protease 1 (Homo sapiens, UniProt Q9P0U3).
T2 sequence (Q9P0U3 whole entry): T1 sequence (whole entry)
The description is as §1.

The target of assay [4] is T1, Sentrin-specific protease 1 (Homo sapiens). Briefly: Inhibition of SENP1 in human SK-OV-3 cells assessed as increase in SUMOlytated JAK2 level at 5 uM after 48 hrs by immunoprecipitation method. It counts as cell-based.
In assay [5] the test system is SK-OV-3. Description: Cytotoxicity against human SK-OV-3 cells assessed as reduction in cell viability incubated for 48 hrs by SRB assay. The format is functional, cell-based. The note with it: SK-OV-3, 48 h.
Assay [6] relates to SK-OV-3. Description: Cytotoxicity against human SK-OV-3 cells assessed as cell viability at 500 uM incubated for 48 hrs by SRB assay. The settings on record: read-out: Activity. The format is functional. In general terms: In SRB staining, fixed cells bind dye roughly in proportion to their protein.
For assay [7], the system named is SK-OV-3. Briefly: Reversal of platinum resistance in cisplatin-resistant human SK-OV-3 cells assessed as reduction in cisplatin IC50 after 48 hrs in presence of cisplatin by SRB assay (reference value: 28.23 microM). The format is functional, cell-based. The note with it: SK-OV-3, 48 h.
Assay [8] concerns SK-OV-3. Briefly: Synergistic reversal of platinum resistance in cisplatin-resistant human SK-OV-3 cells assessed as combination index after 48 hrs in presence of cisplatin by SRB assay. It counts as functional.
Assay [9] has as its system SK-OV-3. Briefly: Cytotoxicity against human SK-OV-3 cells assessed as reduction in cell viability at 25 uM incubated for 48 hrs by SRB assay. The format is functional, cell-based.

In general, inhibition refers to how much of the control response was suppressed. Consider `C[C@H]1[C@H](C)CC[C@]2(C)CC[C@]3(C)C(=CC[C@@H]4[C@@]5(C)CC[C@@H](O)[C@](C)(C(=O)O)[C@@H]5CC[C@]43C)[C@H]12`, for which the inhibition in [1] was determined as 3.9%.

`C[C@@H]1CC[C@]2(C(=O)O)CC[C@]3(C)C(=CC[C@@H]4[C@@]5(C)CC[C@H](O)C(C)(C)[C@@H]5[C@H](O)C[C@]43C)[C@@H]2[C@]1(C)O`: in [1], the inhibition is 3.2%.

As to `C[C@H]1[C@H](C)CC[C@]2(C)CC[C@]3(C)C(=CC(=O)[C@@H]4[C@@]5(C)CC[C@@H](O)[C@](C)(C(=O)O)[C@@H]5CC[C@]43C)[C@H]12`, in assay [1], the inhibition came to 8.9%.

Consider `C[C@H]1[C@H](C)CC[C@]2(CO)CC[C@]3(C)C(=CC[C@@H]4[C@@]5(C)CC[C@H](O)C(C)(C)[C@@H]5CC[C@]43C)[C@H]12`, for which the inhibition in assay [1] was 58.4%.

In the case of `C[C@@H]1CC[C@]2(C(=O)O)CC[C@]3(C)C(=CC[C@@H]4[C@@]5(C)C[C@@H](O)[C@@H](O)C(C)(C)[C@@H]5CC[C@]43C)[C@@H]2[C@]1(C)O`, in assay [1], the inhibition worked out at 66.6%.

In the case of `C[C@@H]1CC[C@]2(C(=O)O)CC[C@]3(C)C(=CC[C@@H]4[C@@]5(C)[C@H](O)[C@@H](O)[C@H](O)C(C)(C)[C@@H]5CC[C@]43C)[C@@H]2[C@]1(C)O`, the inhibition in [1] stood at 78.4%.

As to `C[C@@H]1[C@H]2C3=CC[C@@H]4[C@@]5(C)CC[C@@H](O)C(C)(C)[C@@H]5CC[C@@]4(C)[C@]3(C)CC[C@@]2(C)[C@@H](O)C[C@H]1C(=O)O`, in assay [1], the inhibition was determined as 65.5%.

Regarding `C[C@H]1[C@H](C)CC[C@]2(C(=O)O)CC[C@]3(C)C(=CC[C@@H]4[C@@]5(C)C[C@@H](O)[C@H](O)[C@@](C)(CO)[C@@H]5CC[C@]43C)[C@H]12`, the inhibition in assay [1] is 6.6%.

As usually defined, the IC50 is the concentration that inhibits the measured activity by half. As for `C[C@@H]1CC[C@]2(C(=O)O)CC[C@]3(C)C(=CC[C@@H]4[C@@]5(C)CC[C@H](O)C(C)(C)[C@@H]5CC[C@]43C)[C@@H]2[C@]1(C)O` [POMOLIC ACID], the inhibition in assay [1] is more than 100%; in assay [2], “Dde”. The values for the IC50 (in assay [3]; in the assay with SK-OV-3 [5]; with SK-OV-3 [7]) were 5.1 µM, 51.6 µM and 3.69 µM, respectively. Moreover, in assay [4], the inhibition result was “Active”. For the same molecule, the viability at 500 µM in the assay with SK-OV-3 [6] is more than 25%. Besides, the CI with SK-OV-3 [8] is recorded as 0.23.

Regarding `CC1(C)CC[C@]2(C(=O)O)[C@H](O)C[C@]3(C)C(=CC[C@@H]4[C@@]5(C)CC[C@H](O)C(C)(C)[C@@H]5CC[C@]43C)[C@@H]2C1`, the results for the IC50 in the assay with SK-OV-3 [5] and with SK-OV-3 [7] were 96.5 µM and 21.5 µM, respectively.

As for `C[C@@H]1CC[C@]2(C(=O)O)CC[C@]3(C)C(=CC[C@@H]4[C@@]5(C)[C@H](O)C(=O)[C@H](O)C(C)(C)[C@@H]5CC[C@]43C)[C@@H]2[C@]1(C)O`, the inhibition in assay [1] is 1.9%.

Consider `C[C@H]1[C@H](C)CC[C@]2(C(=O)O)CC[C@]3(C)C(=CC[C@@H]4[C@@]5(C)CC[C@@H](O)C(C)(C)[C@@H]5CC[C@]43C)[C@H]12`, for which the inhibition in assay [1] was found to be 8.4%.

In the case of `C=C(C)[C@@H]1CC[C@]2(C)[C@H](CC=C3[C@@H]4[C@@H](C)[C@H](C)CC[C@]4(C)CC[C@]32C)[C@@]1(C)CCC(=O)O`, in assay [1], the inhibition turned out to be 5.5%.

For `C[C@@H]1CC[C@]2(C(=O)O)CC[C@]3(C)C(=CC[C@@H]4[C@@]5(C)CC[C@@H](O)[C@](C)(CO)[C@@H]5CC[C@]43C)[C@@H]2[C@]1(C)O`, the inhibition in assay [1] worked out at 19.9%.

In the case of `C[C@H]1[C@H](C)CC[C@]2(C(=O)O)CC[C@]3(C)C(=CC[C@@H]4[C@@]5(C)CC[C@H](O)C(C)(C)[C@@H]5CC[C@]43C)[C@H]12`, the inhibition in [1] is 87.6%.

With `C[C@@H]1CC[C@]2(C(=O)O)CC[C@]3(C)C(=CC[C@@H]4[C@@]5(C)C=C(O)C(=O)C(C)(C)[C@@H]5CC[C@]43C)[C@@H]2[C@]1(C)O`, the inhibition in assay [1] was 6%.

In the case of `C[C@@H]1CC[C@]2(C(=O)O)CC[C@]3(C)C(=CC[C@@H]4[C@@]5(C)C[C@@H](O)[C@H](O)C(C)(C)[C@@H]5CC[C@]43C)[C@@H]2[C@]1(C)O` [TOMENTIC ACID], the inhibition in assay [1] is more than 100%; in assay [2] it was “Dde”. The IC50 came to 4.3 µM in [3], 23.2 µM in the assay on SK-OV-3 [5] and 2.4 µM in the assay on SK-OV-3 [7]. Besides, the inhibition entry in [4] was “Active”. Also, in the assay with SK-OV-3 [6], the viability at 500 µM is more than 25%. In addition, in the assay with SK-OV-3 [8], the CI is on record as 0.3.

`C[C@H]1[C@H](C)CC[C@]2(C(=O)O)CC[C@]3(C)C(=CC[C@@H]4[C@@]5(C)C[C@@H](O)[C@H](O)C(C)(C)[C@@H]5CC[C@]43C)[C@H]12` [COROSOLIC ACID]: the inhibition in assay [1] stood at 34.4%. The result in the assay with SK-OV-3 [9] was Active. In addition, the IC50 with SK-OV-3 [5] was 10.5 µM; with SK-OV-3 [7] it was 26.4 µM.

Take `C[C@@H]1CC[C@]2(C(=O)O)CC[C@]3(C)C(=CC[C@@H]4[C@@]5(C)C[C@H](O)[C@H](O)C(C)(C)[C@@H]5CC[C@]43C)[C@@H]2[C@]1(C)O`: in assay [1], the inhibition stood at 1.7%.

Turning to `C[C@@H]1[C@H]2C3=CC[C@@H]4[C@@]5(C)CC[C@H](O)C(C)(C)[C@@H]5CC[C@@]4(C)[C@]3(C)CC[C@@]2(C)CC[C@H]1C(=O)O`, the inhibition in assay [1] worked out at 69.2%.

Consider `C[C@@H]1CC[C@]2(C(=O)O)CC[C@]3(C)C(=CC[C@@H]4[C@@]5(C)CC[C@H](O)[C@@](C)(CO)[C@@H]5[C@H](O)C[C@]43C)[C@@H]2[C@]1(C)O`, for which the inhibition in assay [1] came out at 0.5%.
